Columns and labels:
IL-6 = experiment: Expression of NF-kB regulated cytokine IL-6 in HeLa cells (ELISA); format: cell-based; conditions: for Inhibition of the production of IL-6: after 120 minutes
Description: (§1) The cells were stimulated with 100 μmol of compound described in example 6 with TNF (200 E/ml) or with PMA (50 ng/ml) and the concentration of IL-6 or IL-8 was measured in the cell supernatant at various interval using ELISA (British Biotechnology Products Ltd.).

NF-kB = experiment: NF-kB-CAT reporter gene assay (CAT activity); format: cell-based; conditions: test compound 100 μm; for NF-kB activity: % of CAT synthesis, TNF-stimulated: human TNF alpha 100 ng/ml
Description: The NF-kB-CAT reporter gene cell line (Lenardo M J et al., Cell 58, 227-9, 1989) and. L29/Ji6 cells (Fratelli M et al, Antioxidants & Redox Signalling 5, 229-235, 2003) were prepared as previously described. Human TNF alpha (100 ng/ml) was used. The chloramphenicol-acetyltransferase (CAT) activity was measured by adding 40 microliters of Tris-HCl buffer (250 mM, ph 7.5) and D-threo-[dichloroacetyl]1,2 ^14C chloramphenicol (10 microliters, 8.3×10^−2 mCi/sample) The reaction was started by the addition of n-butyryl coenzyme A. After 2 h at 37° C., the reaction was stopped by extraction with hexane/xylene (2:1). The upper organic phase containing the reaction product was then recovered, and radioactivity was counted on a beta-counter. The activity on NF-kB was expressed as […].

IL-8 = experiment: Expression of NF-kB regulated cytokine IL-8 in HeLa cells (ELISA); format: cell-based; conditions: for IL-8 concentration in cell supernatant: 120′; for Inhibition of the production of IL-8: after 120 minutes
Description: as §1

heme oxygenase-1 (OH-1) = experiment: Zymosan-induced OH-1 protein expression in Raw 264.7 macrophages (western blot); format: cell-based, murine; conditions: for OH-1 protein expression, band intensity: zymosan-stimulated Raw 264.7, 18 hrs
Description: (§2) For the screening approach it was decided to test the compounds object of the present invention and fulfilling the structural general criteria previously described for heme oxygenase-1 (OH-1) and inducible nitric oxide synthase (iNOS). The enzyme tests were performed as described by Vicente A M et al. (Br. J. Pharmacol. 2001, 133, 920-6). The formation of both these two enzymes was associated with the activation of transcription factors, and NF-kB particularly.
(§3) In brief, Raw 264.7 murine macrophage cell line were maintained in a proper culture medium supplemented with 10% fetal bovine serum, 2 mM L-glutamine and penicillin/streptomycin. Suspensions of zymosan A from Saccharomyces cerevisiae in saline were used. After incubation with zymosan and/or test compounds for 18 hrs, cells supernatants were collected to measure protein expression, by western blot analysis. After incubation, macrophages were lysed in 100 microliters of buffer (1% Triton X-100, 1% deoxicholic acid, 20 mM NaCl and 25 mM Tris, pH 7.4) and then centrifuged at 4° C. for 5 min at 10,000×g. The protein content was determined by the Bradford method using bovine serum albumin as standard. Cell lysate (40 micrograms of protein) was mixed with Laemmli sample buffer under reducing conditions. […] Membranes were incubated with specific antibodies: polyclonal antibody against iNOS (1/1000, Cayman Chemical) and anti-OH-1 monoclonal antibody (1/2000, Stressgen). Blots were washed and incubated with peroxidase-conjugated goat IgG (1/20,000). The immunoreactive bands were visualized by an enhanced chemiluminescence system and band intensity quantitated using computer-assisted densitometry.

[1] = tested on: inducible nitric oxide synthase (iNOS); experiment: Zymosan-induced iNOS protein expression in Raw 264.7 macrophages (western blot); format: cell-based, murine; conditions: for INOS protein expression, band intensity: zymosan-stimulated Raw 264.7, 18 hrs
Description: as §2, §3

[2] = zymosan-stimulated Raw 264.7, summary of table I

SMILES: CC(=O)Sc1ccccc1C(=O)Oc1ccc(CO[N+](=O)[O-])cc1 [ATANPE, acetyl thiosalicylic acid 4-(nitroxymethyl)phenyl ester]
- IL-6 concentration in cell supernatant (IL-6; PMA (50 ng/ml) + 100 μmol compound, 15′): 920 pg/mL
- IL-6 concentration in cell supernatant (IL-6; PMA (50 ng/ml) + 100 μmol compound, 120′): 3138 pg/mL
- IL-6 concentration in cell supernatant (IL-6; TNF (200 E/ml) + 100 μmol compound, 15′): 945 pg/mL
- IL-6 concentration in cell supernatant (IL-6; TNF (200 E/ml) + 100 μmol compound, 120′): 1738 pg/mL
- Inhibition of the production of IL-6 (IL-6; first of two values printed with '(TNF stimulation)'): 87%
- Inhibition of the production of IL-6 (IL-6; second of two values printed with '(TNF stimulation)'): 74%
- NF-kB activity: % of CAT synthesis, Basal (NF-kB): 31%
- NF-kB activity: % of CAT synthesis, TNF-stimulated (NF-kB): 26%
- IL-8 concentration in cell supernatant (IL-8; PMA (50 ng/ml) + 100 μmol compound): 12 pg/mL
- IL-8 concentration in cell supernatant (IL-8; TNF (200 E/ml) + 100 μmol compound): 6 pg/mL
- Inhibition of the production of IL-8 (IL-8; first of two values printed with '(PMA stimulation)'): 90%
- Inhibition of the production of IL-8 (IL-8; second of two values printed with '(PMA stimulation)'): 97%
- OH-1 protein expression, band intensity (heme oxygenase-1 (OH-1); concentration 10 μmol): 293 percentage with respect to zymosan
- Effect on OH-1 production (in words) (heme oxygenase-1 (OH-1); [2]): stimulate OH-1 production
- INOS protein expression, band intensity ([1]; concentration 10 μmol): 48 percentage with respect to zymosan
- Effect on iNOS formation (in words) [1, 2]: inhibit iNOS formation

SMILES: CC(=O)Oc1ccccc1C(=O)O [Aspirin, reference compound]
- NF-kB activity: % of CAT synthesis, Basal (NF-kB): 100%
- NF-kB activity: % of CAT synthesis, TNF-stimulated (NF-kB): 92%

SMILES: C[C@@H]1C[C@H]2[C@@H]3CCC4=CC(=O)C=C[C@]4(C)[C@@]3(F)[C@@H](O)C[C@]2(C)[C@@]1(O)C(=O)CO [Dexamethasone, dexamethasone]
- OH-1 protein expression, band intensity (heme oxygenase-1 (OH-1); concentration 1 μmol): 20 percentage with respect to zymosan
- INOS protein expression, band intensity ([1]; concentration 1 μmol): 85 percentage with respect to zymosan

SMILES: COc1ccc2c(c1)c(CC(=O)O)c(C)n2C(=O)c1ccc(Cl)cc1 [Indomethacin, indomethacin]
- OH-1 protein expression, band intensity (heme oxygenase-1 (OH-1); concentration 1 μmol): 65 percentage with respect to zymosan
- INOS protein expression, band intensity ([1]; concentration 1 μmol): 78 percentage with respect to zymosan

SMILES: CC(=O)N[C@@H](CS)C(=O)O [N-acetylcysteine]
- OH-1 protein expression, band intensity (heme oxygenase-1 (OH-1); concentration 100 μmol): 44 percentage with respect to zymosan
- INOS protein expression, band intensity ([1]; concentration 100 μmol): 80 percentage with respect to zymosan

SMILES: CS(=O)(=O)Nc1ccc([N+](=O)[O-])cc1OC1CCCCC1 [NS398]
- OH-1 protein expression, band intensity (heme oxygenase-1 (OH-1); concentration 10 μmol): 72 percentage with respect to zymosan
- INOS protein expression, band intensity ([1]; concentration 10 μmol): 120 percentage with respect to zymosan

SMILES: CC(c1cc2ccccc2s1)N(O)C(N)=O (stereo not shown) [Zileuton, zileuton]
- OH-1 protein expression, band intensity (heme oxygenase-1 (OH-1); concentration 10 μmol): 125 percentage with respect to zymosan
- INOS protein expression, band intensity ([1]; concentration 10 μmol): 112 percentage with respect to zymosan

From US20090275539A1, “Nuclear Transcription Factors Regulators” (CTG PHARMA S.R.L., priority 2004, published 2009)
